For the assay, the target named is T1, GABAB receptor (GABABR1a/GABABR2 heterodimer) (Homo sapiens, UniProt O75899+Q9UBS5).
T1 construct: expressed in transfected cells
Briefly: [35S]-GTPγS binding assay, potency of positive allosteric modulator on GABA EC50. The format is biochemical. The settings on record: potency of the modulator: concentration required to reduce GABA's EC50 by 50%. The text has this:
GABABR1a and GABABR2 were cloned from human brain cDNA and subcloned into pCI-Neo (Promega) and pALTER-1 (Promega), respectively. A GABABR1a-Gαqi5 fusion protein expression vector was constructed using the pCI-Neo-GABABR1a cDNA plasmid and pLEC1-Gαqi5 (Molecular Devices, CA). In order to make the Gαqi5 pertussis toxin insensitive, Cys356 was mutated to Gly using standard PCR methodology with the primers 5′-[…]-3 (forward) and 5′-GCGGCCG […]-3′ (reverse). The Gαqi5mut cDNA was ligated into the BamnHI and NotI sites of pcDNA3.0 (Invitrogen). The GABABR1a coding sequence was amplified by PCR from pCI-Neo-GABABR1a using the primers, 5′-[…]-3′ (forward) and 5′-[…]-3′ (reverse) and subdloned into the BamHI site of pcDNA3.0-Gαqi5mut.
For generation of stable cell lines, CHO-K1 cells were grown in Nut mix F-12 (Ham) media supplemented with 10% FBS, 100 U/ml Penicillin and 100 μg/nl Streptomycin at 37° C. in a humidified CO2-incubator. […]
[^35S]-GTPγS binding assays were performed at 30° C. for 45 min in membrane buffer (100 mM NaCl, […], 1 mM EDTA, 50 mM HEPES, pH 7.4) containing 0.025 μg/μl of membrane protein (prepared from the cell lines described above) with 0.01% bovine serum albumin (fatty acid free), 10 μM GDP, 100 μM DTT and 0.53 nM [^35S]-GTPγS (Amersham-Pharmacia Biotech) in a final volume of 200 μl. Nonspecific binding was determined in the presence of 20 μM GTPγS. […]

Broadly, the EC50 is the concentration needed to bring the measured effect to its halfway point. Low values mean higher potency in that assay, high ones lower potency in that assay.

T1 sequence (Q9UBS5 15-961 limits assumed): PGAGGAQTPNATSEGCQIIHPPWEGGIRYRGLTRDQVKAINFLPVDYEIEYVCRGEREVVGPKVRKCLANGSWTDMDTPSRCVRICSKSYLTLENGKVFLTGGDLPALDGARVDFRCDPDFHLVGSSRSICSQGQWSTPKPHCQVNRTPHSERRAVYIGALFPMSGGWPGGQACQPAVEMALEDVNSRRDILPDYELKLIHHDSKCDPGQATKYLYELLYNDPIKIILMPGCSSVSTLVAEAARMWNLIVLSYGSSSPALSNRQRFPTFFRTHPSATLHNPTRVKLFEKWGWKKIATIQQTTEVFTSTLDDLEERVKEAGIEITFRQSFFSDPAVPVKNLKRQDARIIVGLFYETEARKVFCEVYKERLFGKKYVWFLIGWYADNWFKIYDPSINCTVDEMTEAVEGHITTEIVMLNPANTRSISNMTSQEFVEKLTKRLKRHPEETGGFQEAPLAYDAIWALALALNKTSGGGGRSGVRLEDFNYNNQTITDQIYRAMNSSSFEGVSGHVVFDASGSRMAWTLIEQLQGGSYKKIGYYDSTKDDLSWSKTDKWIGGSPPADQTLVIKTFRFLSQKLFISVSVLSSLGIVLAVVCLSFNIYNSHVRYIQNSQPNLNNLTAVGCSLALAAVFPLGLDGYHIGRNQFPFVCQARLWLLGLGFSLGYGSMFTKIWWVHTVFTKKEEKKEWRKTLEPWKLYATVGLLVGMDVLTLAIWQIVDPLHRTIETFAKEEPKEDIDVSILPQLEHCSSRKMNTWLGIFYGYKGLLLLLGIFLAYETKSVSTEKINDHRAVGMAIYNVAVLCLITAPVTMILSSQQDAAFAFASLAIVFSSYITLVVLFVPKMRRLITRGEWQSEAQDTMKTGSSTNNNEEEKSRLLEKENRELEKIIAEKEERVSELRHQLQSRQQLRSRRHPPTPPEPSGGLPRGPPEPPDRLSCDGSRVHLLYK
T1 sequence (O75899 42-941): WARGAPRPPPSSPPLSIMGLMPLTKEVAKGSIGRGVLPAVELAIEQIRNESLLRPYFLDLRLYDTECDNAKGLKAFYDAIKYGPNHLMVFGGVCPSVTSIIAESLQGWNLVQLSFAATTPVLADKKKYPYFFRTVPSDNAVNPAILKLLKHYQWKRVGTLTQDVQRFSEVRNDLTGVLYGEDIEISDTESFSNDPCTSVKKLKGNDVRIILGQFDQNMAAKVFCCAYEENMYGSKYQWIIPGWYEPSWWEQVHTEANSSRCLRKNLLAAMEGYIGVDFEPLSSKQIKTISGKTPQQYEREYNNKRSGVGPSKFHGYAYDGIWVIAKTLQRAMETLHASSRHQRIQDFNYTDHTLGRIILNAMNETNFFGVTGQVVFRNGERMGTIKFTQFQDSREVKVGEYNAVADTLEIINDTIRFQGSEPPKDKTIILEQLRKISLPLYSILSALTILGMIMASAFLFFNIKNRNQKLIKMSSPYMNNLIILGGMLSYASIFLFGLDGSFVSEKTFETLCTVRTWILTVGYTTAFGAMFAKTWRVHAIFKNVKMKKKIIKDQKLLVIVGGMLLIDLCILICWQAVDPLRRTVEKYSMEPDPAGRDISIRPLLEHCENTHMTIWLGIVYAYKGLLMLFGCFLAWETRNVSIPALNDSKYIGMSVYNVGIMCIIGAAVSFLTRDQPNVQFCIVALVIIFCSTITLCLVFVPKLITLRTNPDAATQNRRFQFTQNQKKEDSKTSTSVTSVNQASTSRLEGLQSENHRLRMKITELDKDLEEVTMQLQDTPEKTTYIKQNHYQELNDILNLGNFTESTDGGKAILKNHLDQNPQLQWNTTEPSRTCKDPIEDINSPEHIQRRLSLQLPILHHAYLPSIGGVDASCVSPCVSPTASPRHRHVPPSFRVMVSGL

`CN(C)c1nc(NC(=S)C2COc3ccccc3O2)c(C(=O)OC(C)(C)C)n1-c1ccccc1` (centres unmarked) [Example 6, tert-butyl 4-[(2,3-dihydro-1,4-benzodioxin-2-ylcarbonothioyl)amino]-2-(dimethylamino)-1-phenyl-1H-imidazole-5-carboxylate]: a half-maximal effect (EC50) was put at 2270 nM.

For the molecule `CN(C)c1nc(/N=C(/c2ccc(Cl)cc2)N2CCCC2)c(C(=O)OC(C)(C)C)n1-c1ccccc1` [Example 2, tert-butyl 4-{[(1Z)-(4-chlorophenyl)(pyrrolidin-1-yl)methylene]amino}-2-(dimethylamino)-1-phenyl-1H-imidazole-5-carboxylate], a half-maximal effect (EC50) was put at 2380 nM. The EC50 values of the last two molecules are within 1.5-fold of each other.
